Results on 18 molecules are retold here after US12371428B2 (Exelixis, Inc., priority 2019, dated 2025).

Molecules are shown by their SMILES.

Common to all, as to type: cell-based
Assay [1] has as its target Met (phospho-Met, HGF-stimulated PC-3 prostate cancer cells) (Homo sapiens (Human), UniProt P08581). Nature of the assay: Met autophosphorylation ELISA in PC-3 cells (Example F). Conditions: cellular activity; Met autophosphorylation ELISA in PC-3 cells; read-out: c-Met IC50. In a few lines: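 Compounds were tested on HGF-stimulated PC-3 cells. After 24 h culture and 3 h serum starvation, cells got compound for 1 h and 100 ng/mL HGF for 10 min, and Met tyrosine phosphorylation was measured by ELISA.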

Assay [2] deals with Mer (phospho-Mer, MERTK-transfected 293A cells) (Homo sapiens (Human), UniProt Q12866). Put plainly: Mer autophosphorylation ELISA in transient transfected 293A cells (Example H). The conditions noted are these: cellular activity; Mer autophosphorylation ELISA in transient transfected 293A cells. In a few lines: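 IC50 from phospho-Mer ELISA of MERTK-transfected 293A cell lysates after 1 h treatment with serially diluted compound in serum-free medium.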
(ELISA stands for enzyme-linked immunosorbent assay.)

Assay [3] deals with AXL (phospho-AXL, Gas6-stimulated A-172 glioblastoma cells) (Homo sapiens (Human), UniProt P30530). Nature of the assay: AXL autophosphorylation ELISA in A-172 cells (Example E). The conditions noted are these: cellular activity; AXL autophosphorylation ELISA in A-172 cells; read-out: Axl IC50. In a few lines: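 Phospho-AXL was measured by ELISA in lysates of Gas6-stimulated A-172 cells, starved 24 h in serum-free medium and exposed 1 h to an 8-point compound dilution at 0.3% DMSO.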

In assay [4] the target is KDR (phospho-KDR, VEGF165-stimulated HUVEC cells) (Homo sapiens (Human), UniProt P35968). Put plainly: KDR autophosphorylation ELISA in HUVEC cells (Example G). Conditions: cellular activity; KDR autophosphorylation ELISA in HUVEC cells. In a few lines: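 Read-out is phospho-KDR measured by ELISA in lysates of VEGF165-stimulated (100 ng/mL, 5 min) HUVEC that were serum-starved 24 h and then pre-exposed 1 h to compound across 8 doses in 0.3% DMSO. Unstimulated lysates defined 0% and stimulated vehicle lysates 100% activity; IC50 values come from 4-parameter logistic regression.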
Sequence of KDR (phospho-KDR, VEGF165-stimulated HUVEC cells) (P35968 20-1356): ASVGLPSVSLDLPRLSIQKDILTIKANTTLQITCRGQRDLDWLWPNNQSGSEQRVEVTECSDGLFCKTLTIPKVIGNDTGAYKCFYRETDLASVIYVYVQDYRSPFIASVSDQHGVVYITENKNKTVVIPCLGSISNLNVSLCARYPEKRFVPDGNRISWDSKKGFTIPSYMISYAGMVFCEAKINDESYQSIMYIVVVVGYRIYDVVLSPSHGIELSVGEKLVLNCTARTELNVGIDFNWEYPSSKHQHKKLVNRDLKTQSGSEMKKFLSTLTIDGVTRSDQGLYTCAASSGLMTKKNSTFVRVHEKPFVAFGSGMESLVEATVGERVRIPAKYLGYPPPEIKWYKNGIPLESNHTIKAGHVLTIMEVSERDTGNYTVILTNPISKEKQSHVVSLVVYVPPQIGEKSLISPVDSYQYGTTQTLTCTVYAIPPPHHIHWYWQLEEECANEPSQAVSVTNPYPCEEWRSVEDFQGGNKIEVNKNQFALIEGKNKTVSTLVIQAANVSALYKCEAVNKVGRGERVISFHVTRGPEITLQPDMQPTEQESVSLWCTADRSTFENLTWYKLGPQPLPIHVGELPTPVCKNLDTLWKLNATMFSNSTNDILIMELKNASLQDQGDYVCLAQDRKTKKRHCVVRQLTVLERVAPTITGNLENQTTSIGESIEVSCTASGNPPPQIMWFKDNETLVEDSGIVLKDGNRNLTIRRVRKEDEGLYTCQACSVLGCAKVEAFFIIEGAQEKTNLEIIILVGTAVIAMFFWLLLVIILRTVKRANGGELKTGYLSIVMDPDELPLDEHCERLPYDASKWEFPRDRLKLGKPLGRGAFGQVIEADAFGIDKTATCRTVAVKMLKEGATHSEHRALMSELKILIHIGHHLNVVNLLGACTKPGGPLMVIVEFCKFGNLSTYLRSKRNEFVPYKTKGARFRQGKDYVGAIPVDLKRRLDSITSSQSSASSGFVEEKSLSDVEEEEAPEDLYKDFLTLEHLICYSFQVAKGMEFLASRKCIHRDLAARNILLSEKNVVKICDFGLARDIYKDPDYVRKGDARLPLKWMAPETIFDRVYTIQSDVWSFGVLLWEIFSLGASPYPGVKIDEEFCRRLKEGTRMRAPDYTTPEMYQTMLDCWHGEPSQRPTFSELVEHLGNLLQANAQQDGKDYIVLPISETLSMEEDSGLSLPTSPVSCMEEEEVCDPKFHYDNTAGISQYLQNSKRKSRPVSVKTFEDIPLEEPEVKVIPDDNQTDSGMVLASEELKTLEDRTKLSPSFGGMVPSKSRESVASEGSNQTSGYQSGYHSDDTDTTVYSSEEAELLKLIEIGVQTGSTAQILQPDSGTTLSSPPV

Sequence of Mer (phospho-Mer, MERTK-transfected 293A cells) (Q12866 21-999): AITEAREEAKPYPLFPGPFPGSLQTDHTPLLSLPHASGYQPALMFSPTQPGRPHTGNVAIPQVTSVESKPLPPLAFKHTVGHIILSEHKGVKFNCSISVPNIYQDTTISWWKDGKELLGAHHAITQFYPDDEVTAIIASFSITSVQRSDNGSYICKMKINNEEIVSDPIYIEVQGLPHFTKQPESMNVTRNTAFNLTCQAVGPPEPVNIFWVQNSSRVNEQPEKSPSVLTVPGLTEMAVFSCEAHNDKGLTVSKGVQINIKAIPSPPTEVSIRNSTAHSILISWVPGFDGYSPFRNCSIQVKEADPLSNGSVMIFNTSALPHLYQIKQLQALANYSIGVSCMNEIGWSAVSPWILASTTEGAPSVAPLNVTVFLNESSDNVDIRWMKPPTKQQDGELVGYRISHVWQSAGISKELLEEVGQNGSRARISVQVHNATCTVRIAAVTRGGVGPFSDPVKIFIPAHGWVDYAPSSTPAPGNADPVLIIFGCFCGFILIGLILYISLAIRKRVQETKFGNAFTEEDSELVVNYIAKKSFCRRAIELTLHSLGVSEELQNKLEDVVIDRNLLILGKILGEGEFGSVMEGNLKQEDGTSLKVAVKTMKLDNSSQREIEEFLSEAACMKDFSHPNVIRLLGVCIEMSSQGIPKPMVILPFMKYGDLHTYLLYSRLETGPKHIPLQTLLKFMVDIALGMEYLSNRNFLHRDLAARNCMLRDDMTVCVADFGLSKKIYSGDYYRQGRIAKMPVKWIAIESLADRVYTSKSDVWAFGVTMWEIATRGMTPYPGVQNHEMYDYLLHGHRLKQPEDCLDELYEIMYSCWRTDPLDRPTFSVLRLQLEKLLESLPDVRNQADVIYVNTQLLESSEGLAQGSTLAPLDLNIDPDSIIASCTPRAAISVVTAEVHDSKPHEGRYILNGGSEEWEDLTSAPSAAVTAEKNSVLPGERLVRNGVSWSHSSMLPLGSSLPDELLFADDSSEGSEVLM
Sequence of Met (phospho-Met, HGF-stimulated PC-3 prostate cancer cells) (P08581 25-1390): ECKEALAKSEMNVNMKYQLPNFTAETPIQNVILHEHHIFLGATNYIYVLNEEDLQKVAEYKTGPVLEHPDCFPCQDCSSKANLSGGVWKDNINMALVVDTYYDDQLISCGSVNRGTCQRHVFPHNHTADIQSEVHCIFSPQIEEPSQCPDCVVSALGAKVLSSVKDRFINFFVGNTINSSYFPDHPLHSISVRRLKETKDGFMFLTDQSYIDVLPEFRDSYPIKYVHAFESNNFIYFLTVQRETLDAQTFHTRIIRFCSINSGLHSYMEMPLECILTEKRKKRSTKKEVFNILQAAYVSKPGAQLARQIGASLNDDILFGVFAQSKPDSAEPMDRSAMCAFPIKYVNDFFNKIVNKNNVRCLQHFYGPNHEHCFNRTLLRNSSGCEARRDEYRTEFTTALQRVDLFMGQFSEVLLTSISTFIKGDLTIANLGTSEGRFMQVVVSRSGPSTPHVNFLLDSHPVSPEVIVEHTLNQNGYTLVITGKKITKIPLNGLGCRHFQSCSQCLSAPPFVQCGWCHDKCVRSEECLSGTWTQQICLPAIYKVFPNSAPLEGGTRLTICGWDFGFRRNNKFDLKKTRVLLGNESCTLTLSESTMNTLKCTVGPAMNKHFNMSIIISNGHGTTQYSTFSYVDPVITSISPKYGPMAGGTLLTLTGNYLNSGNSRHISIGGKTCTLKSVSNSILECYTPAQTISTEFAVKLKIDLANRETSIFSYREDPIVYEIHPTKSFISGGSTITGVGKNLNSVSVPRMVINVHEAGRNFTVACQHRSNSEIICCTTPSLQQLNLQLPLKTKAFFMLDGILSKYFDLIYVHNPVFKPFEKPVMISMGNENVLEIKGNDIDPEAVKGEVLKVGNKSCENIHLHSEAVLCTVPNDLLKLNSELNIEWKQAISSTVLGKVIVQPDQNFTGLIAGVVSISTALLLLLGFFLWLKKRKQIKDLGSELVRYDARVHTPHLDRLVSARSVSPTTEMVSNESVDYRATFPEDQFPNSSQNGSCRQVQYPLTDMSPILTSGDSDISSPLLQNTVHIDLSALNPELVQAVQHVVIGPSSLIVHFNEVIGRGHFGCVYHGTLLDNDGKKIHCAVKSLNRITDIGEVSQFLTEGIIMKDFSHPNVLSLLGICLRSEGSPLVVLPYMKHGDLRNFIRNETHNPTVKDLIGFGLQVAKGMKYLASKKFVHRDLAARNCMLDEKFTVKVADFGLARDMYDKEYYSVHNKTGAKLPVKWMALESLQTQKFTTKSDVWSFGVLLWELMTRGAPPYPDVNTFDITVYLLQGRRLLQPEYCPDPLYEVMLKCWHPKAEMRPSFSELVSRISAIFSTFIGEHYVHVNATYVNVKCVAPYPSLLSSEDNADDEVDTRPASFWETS
Sequence of AXL (phospho-AXL, Gas6-stimulated A-172 glioblastoma cells) (P30530 26-894): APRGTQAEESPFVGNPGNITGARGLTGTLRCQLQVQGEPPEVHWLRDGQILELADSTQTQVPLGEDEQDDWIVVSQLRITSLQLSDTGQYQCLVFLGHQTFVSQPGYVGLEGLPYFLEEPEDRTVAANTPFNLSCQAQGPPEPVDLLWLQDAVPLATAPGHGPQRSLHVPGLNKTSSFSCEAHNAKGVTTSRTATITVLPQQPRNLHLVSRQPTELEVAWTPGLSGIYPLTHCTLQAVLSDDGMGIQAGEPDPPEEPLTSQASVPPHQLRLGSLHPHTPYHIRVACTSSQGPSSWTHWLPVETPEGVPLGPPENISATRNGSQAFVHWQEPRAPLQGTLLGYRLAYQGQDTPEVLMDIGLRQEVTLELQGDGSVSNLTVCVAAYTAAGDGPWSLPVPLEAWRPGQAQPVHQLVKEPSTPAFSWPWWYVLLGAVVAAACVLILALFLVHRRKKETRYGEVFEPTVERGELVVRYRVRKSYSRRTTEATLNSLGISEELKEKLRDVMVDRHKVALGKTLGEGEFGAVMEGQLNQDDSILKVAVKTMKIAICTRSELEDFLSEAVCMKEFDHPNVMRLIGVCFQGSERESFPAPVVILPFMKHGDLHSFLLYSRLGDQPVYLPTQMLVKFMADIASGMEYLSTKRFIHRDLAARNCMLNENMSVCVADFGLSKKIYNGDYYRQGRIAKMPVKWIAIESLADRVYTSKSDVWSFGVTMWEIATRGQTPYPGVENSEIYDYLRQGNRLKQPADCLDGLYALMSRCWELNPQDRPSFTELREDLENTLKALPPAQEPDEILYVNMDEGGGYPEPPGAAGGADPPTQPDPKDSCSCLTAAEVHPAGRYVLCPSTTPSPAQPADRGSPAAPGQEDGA

The IC50 is the midpoint of a concentration-inhibition curve. On to `COc1cnc2c(Oc3cc(F)c(NC(=O)c4c(C)nc(C)c(-c5ccc(F)cc5C)c4O)cc3F)ccnc2c1` [Compound 751, N-[2,5-difluoro-4-[(7-methoxy-1,5-naphthyridin-4-yl)oxy]phenyl]-5-(4-fluoro-2-methylphenyl)-4-hydroxy-2,6-dimethylpyridine-3-carboxamide], for which the IC50 in assay [1], in assay [2], in assay [3] and in assay [4] was below 100 nM each time.

As to `CNC(=O)c1cc2nccc(Oc3cc(F)c(NC(=O)c4c(C)nc(C)c(-c5ccc(F)cc5C)c4O)cc3F)c2cc1C` [Compound 752, 4-[2,5-difluoro-4-[[5-(4-fluoro-2-methylphenyl)-4-hydroxy-2,6-dimethylpyridine-3-carbonyl]amino]phenoxy]-N,6-dimethylquinoline-7-carboxamide], the IC50 in assay [1], in assay [2], in assay [3] and in assay [4] was below 100 nM in each case.

In the case of `COc1cc2nccc(Oc3ccc(NC(=O)c4c(OC)c(C(C)=O)cn(-c5ccc(F)cc5)c4=O)cc3)c2nc1OC` [Compound 753, 5-acetyl-N-[4-[(6,7-dimethoxy-1,5-naphthyridin-4-yl)oxy]phenyl]-1-(4-fluorophenyl)-4-methoxy-2-oxopyridine-3-carboxamide], the IC50 in assay [1] is below 100 nM; in assay [2], below 100 nM; in assay [3] it was below 100 nM; in assay [4] it was above 300 nM.

Take `COc1cc2nccc(Oc3ccc(NC(=O)c4c(OC)c(C(C)=O)cn(-c5ccc(F)cc5)c4=O)cc3F)c2nc1OC` [Compound 754, 5-acetyl-N-[4-[(6,7-dimethoxy-1,5-naphthyridin-4-yl)oxy]-3-fluorophenyl]-1-(4-fluorophenyl)-4-methoxy-2-oxopyridine-3-carboxamide]: the concentration for half-maximal inhibition (IC50) in assay [1] is below 100 nM; in assay [2], below 100 nM; in assay [3], below 100 nM; in assay [4], above 300 nM.

As to `COCCOc1cc2nccc(Oc3ccc(NC(=O)c4cc(C(C)=O)c(C)n(-c5ccc(F)cc5)c4=O)cc3)c2nc1OC` [Compound 757, 5-acetyl-1-(4-fluorophenyl)-N-[4-[[6-methoxy-7-(2-methoxyethoxy)-1,5-naphthyridin-4-yl]oxy]phenyl]-6-methyl-2-oxopyridine-3-carboxamide], the IC50 in assay [1] was below 100 nM; in assay [2], below 100 nM; in assay [3], below 100 nM; in assay [4] it was above 300 nM.

Take `COCCOc1cnc2c(Oc3ccc(NC(=O)c4cc(C(C)=O)c(C)n(-c5ccc(F)cc5)c4=O)cc3F)ccnc2c1` [Compound 758, 5-acetyl-N-[3-fluoro-4-[[7-(2-methoxyethoxy)-1,5-naphthyridin-4-yl]oxy]phenyl]-1-(4-fluorophenyl)-6-methyl-2-oxopyridine-3-carboxamide]: the IC50 in assay [1] is below 100 nM; in assay [2], below 100 nM; in assay [3] it was below 100 nM; in assay [4], above 300 nM.

`COc1cc2nccc(Oc3ccc(NC(=O)c4cn5c(c(-c6ccc(F)cc6)c4=O)OC(C)C5)cc3F)c2nc1OC` (stereo not drawn) [Compound 759, N-[4-[(6,7-dimethoxy-1,5-naphthyridin-4-yl)oxy]-3-fluorophenyl]-8-(4-fluorophenyl)-2-methyl-7-oxo-2,3-dihydro-[1,3]oxazolo[3,2-a]pyridine-6-carboxamide]: the IC50 in assay [1], in assay [2], in assay [3] and in assay [4] was below 100 nM each time.

Regarding `COCCOc1cc2c(Oc3ccc(NC(=O)c4cn(C)c(C)c(-c5ccc(F)cc5)c4=O)cc3F)ccnc2nc1OC` [Compound 760, N-[3-fluoro-4-[[7-methoxy-6-(2-methoxyethoxy)-1,8-naphthyridin-4-yl]oxy]phenyl]-5-(4-fluorophenyl)-1,6-dimethyl-4-oxopyridine-3-carboxamide], the IC50 in assay [1] is below 100 nM; in assay [2], below 100 nM; in assay [3], below 100 nM; in assay [4] it was above 300 nM.

For `COc1cc(NC(=O)c2cn(C)c(C)c(-c3ccc(F)cc3)c2=O)ccc1Oc1ccnc2cc(OC)c(OC)nc12` [Compound 762, N-[4-[(6,7-dimethoxy-1,5-naphthyridin-4-yl)oxy]-3-methoxyphenyl]-5-(4-fluorophenyl)-1,6-dimethyl-4-oxopyridine-3-carboxamide], the IC50 in assay [1], in assay [2], in assay [3] and in assay [4] was below 100 nM throughout.

For `COc1cc2nccc(Oc3ccc(NC(=O)c4cn(C)c(C)c(-c5ccc(F)cc5)c4=O)cc3C)c2nc1OC` [Compound 763, N-[4-[(6,7-dimethoxy-1,5-naphthyridin-4-yl)oxy]-3-methylphenyl]-5-(4-fluorophenyl)-1,6-dimethyl-4-oxopyridine-3-carboxamide], the half-maximal inhibitory concentration (IC50) in assay [1], in assay [2], in assay [3] and in assay [4] was below 100 nM in each case.

For the molecule `COc1cc2nccc(Oc3ccc(NC(=O)c4cn(CCO)c(CO)c(-c5ccc(F)cc5C)c4=O)cc3F)c2nc1OC` [Compound 765, N-[4-[(6,7-dimethoxy-1,5-naphthyridin-4-yl)oxy]-3-fluorophenyl]-5-(4-fluoro-2-methylphenyl)-1-(2-hydroxyethyl)-6-(hydroxymethyl)-4-oxopyridine-3-carboxamide], the concentration for half-maximal inhibition (IC50) in assay [1] was below 100 nM; in assay [2] it was below 100 nM; in assay [3], below 100 nM; in assay [4], above 300 nM.

For the molecule `COc1cc2nccc(Oc3ccc(NC(=O)c4cn5c(c(-c6ccc(F)cc6C)c4=O)COCC5)cc3F)c2nc1OC` [Compound 766, N-[4-[(6,7-dimethoxy-1,5-naphthyridin-4-yl)oxy]-3-fluorophenyl]-9-(4-fluoro-2-methylphenyl)-8-oxo-3,4-dihydro-1H-pyrido[2,1-c][1,4]oxazine-7-carboxamide], the half-inhibitory concentration (IC50) in assay [1] is below 100 nM; in assay [2], below 100 nM; in assay [3] it was below 100 nM; in assay [4], above 300 nM.

For `COc1cnc2c(Oc3c(F)cc(NC(=O)c4c(C)nc(C)c(-c5ccc(F)cc5C)c4O)cc3F)ccnc2c1` [Compound 767, N-[3,5-difluoro-4-[(7-methoxy-1,5-naphthyridin-4-yl)oxy]phenyl]-5-(4-fluoro-2-methylphenyl)-4-hydroxy-2,6-dimethylpyridine-3-carboxamide], the IC50 in assay [1], in assay [2], in assay [3] and in assay [4] was below 100 nM each time.

On to `COc1cc2nccc(Oc3cc(F)c(NC(=O)c4c(C)n(C)c(C)c(-c5ccc(F)cc5)c4=O)cc3F)c2nc1OC` [Compound 769, N-[4-[(6,7-dimethoxy-1,5-naphthyridin-4-yl)oxy]-2,5-difluorophenyl]-5-(4-fluorophenyl)-1,2,6-trimethyl-4-oxopyridine-3-carboxamide], for which the IC50 was below 100 nM in assay [1], below 100 nM in assay [2], below 100 nM in assay [3] and 100 to 300 nM in assay [4].

Take `COc1cnc2c(Oc3cc(F)c(NC(=O)c4c(C)nc(C)c(-c5ccc(F)cc5C)c4O)cc3Cl)ccnc2c1` [Compound 770, N-[5-chloro-2-fluoro-4-[(7-methoxy-1,5-naphthyridin-4-yl)oxy]phenyl]-5-(4-fluoro-2-methylphenyl)-4-hydroxy-2,6-dimethylpyridine-3-carboxamide]: the IC50 in assay [1], in assay [2], in assay [3] and in assay [4] was below 100 nM in each case.

Regarding `COc1cnc2c(Oc3ccc(NC(=O)c4c(C)n(C)c(C)c(-c5ccc(F)cc5C)c4=O)cc3F)ccnc2c1` [Compound 771, N-[3-fluoro-4-[(7-methoxy-1,5-naphthyridin-4-yl)oxy]phenyl]-5-(4-fluoro-2-methylphenyl)-1,2,6-trimethyl-4-oxopyridine-3-carboxamide], the IC50 in assay [1] is below 100 nM; in assay [2], below 100 nM; in assay [3], below 100 nM; in assay [4], above 300 nM.

For `COc1cc2nccc(Oc3cc(F)c(NC(=O)c4c(C)n(C)c(C)c(-c5ccc(F)cc5C)c4=O)cc3F)c2nc1OC` [Compound 772, N-[4-[(6,7-dimethoxy-1,5-naphthyridin-4-yl)oxy]-2,5-difluorophenyl]-5-(4-fluoro-2-methylphenyl)-1,2,6-trimethyl-4-oxopyridine-3-carboxamide], the IC50 was below 100 nM in assay [1], below 100 nM in assay [2], below 100 nM in assay [3] and 100 to 300 nM in assay [4].

`COc1cc2nccc(Oc3ccc(NC(=O)c4c(C)n(C)c(C)c(-c5ccc(F)cc5C)c4=O)cc3F)c2nc1OC` [Compound 774, N-[4-[(6,7-dimethoxy-1,5-naphthyridin-4-yl)oxy]-3-fluorophenyl]-5-(4-fluoro-2-methylphenyl)-1,2,6-trimethyl-4-oxopyridine-3-carboxamide]: the IC50 in assay [1] was below 100 nM; in assay [2], below 100 nM; in assay [3], below 100 nM; in assay [4] it was 100 to 300 nM.
